# Results taken from ChEMBL document CHEMBL2321687, “Identification of a novel arylpiperazine scaffold for fatty acid amide hydrolase inhibition with improved drug disposition properties” (Bioorg Med Chem Lett, 2013).
# Active and inactive are the calls of the source. The rule behind the calls is not given here.
# Assays:
# [1] = target: T1, Fatty-acid amide hydrolase 1 (Mus musculus, UniProt O08914); assay: Inhibition of FAAH in mouse brain homogenate using [3Hethanolamine]AEA as substrate incubated for 20 mins prior to substrate addition measured after 15 mins by beta counting analysis; format: tissue-based
# T1 sequence (O08914 whole entry): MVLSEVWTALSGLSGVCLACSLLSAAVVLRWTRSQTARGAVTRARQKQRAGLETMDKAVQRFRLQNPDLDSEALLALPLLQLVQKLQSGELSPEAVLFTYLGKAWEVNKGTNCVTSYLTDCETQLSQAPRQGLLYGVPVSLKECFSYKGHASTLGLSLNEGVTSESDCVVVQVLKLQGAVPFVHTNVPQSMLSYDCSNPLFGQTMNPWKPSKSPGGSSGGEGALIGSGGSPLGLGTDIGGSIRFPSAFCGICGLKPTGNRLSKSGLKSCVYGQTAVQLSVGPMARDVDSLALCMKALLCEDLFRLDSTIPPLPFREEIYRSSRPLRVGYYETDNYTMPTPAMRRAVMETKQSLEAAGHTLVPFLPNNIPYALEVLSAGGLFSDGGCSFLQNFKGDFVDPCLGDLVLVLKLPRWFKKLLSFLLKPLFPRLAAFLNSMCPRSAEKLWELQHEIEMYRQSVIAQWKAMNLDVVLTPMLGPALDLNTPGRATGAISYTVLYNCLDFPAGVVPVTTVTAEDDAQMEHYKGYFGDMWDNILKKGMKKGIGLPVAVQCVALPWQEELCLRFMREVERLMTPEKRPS
# [2] = target: T2, Fatty-acid amide hydrolase 1 (Homo sapiens, UniProt O00519); assay: Inhibition of human FAAH using [3Hethanolamine]AEA as substrate incubated for 20 mins prior to substrate addition measured after 15 mins by beta counting analysis
# T2 sequence (O00519 whole entry): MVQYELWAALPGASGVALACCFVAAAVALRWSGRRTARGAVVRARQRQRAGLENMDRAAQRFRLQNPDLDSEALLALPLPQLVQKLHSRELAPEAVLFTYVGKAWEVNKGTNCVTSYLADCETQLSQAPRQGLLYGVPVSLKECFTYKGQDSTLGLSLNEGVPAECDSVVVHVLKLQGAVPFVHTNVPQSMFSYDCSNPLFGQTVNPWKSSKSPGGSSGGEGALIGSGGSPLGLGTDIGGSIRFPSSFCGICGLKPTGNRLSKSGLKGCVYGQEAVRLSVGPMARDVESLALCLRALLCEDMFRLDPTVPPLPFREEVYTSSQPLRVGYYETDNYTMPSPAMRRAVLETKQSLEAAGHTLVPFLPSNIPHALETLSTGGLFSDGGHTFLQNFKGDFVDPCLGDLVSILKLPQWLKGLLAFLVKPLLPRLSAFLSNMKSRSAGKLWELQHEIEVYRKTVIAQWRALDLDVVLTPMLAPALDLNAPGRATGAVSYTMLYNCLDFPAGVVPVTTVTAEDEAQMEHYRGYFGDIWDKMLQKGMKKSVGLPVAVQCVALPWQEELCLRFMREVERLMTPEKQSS
# [3] = target: Fatty-acid amide hydrolase 1 (Mus musculus) (UniProt O08914); assay: Reversible noncompetitive inhibition of FAAH in mouse brain homogenate using [3Hethanolamine]AEA as substrate incubated for 20 mins prior to dialysis for 18 hrs followed by substrate addition measured after 15 mins; format: tissue-based
Structure (SMILES),Ki [1] [µM],IC50 [2] [µM],inhibition [3]
NC(=O)c1ccn(-c2cccc(N3CCN(C(=O)NCCCCCCc4ccccc4)CC3)c2)c1,> 0.5,,
CCCCOc1ccc(NC(=O)Oc2cccc(N3CCNCC3)c2)cc1,> 0.5,,
C/C(=N\OC(=O)N1CCCCC1)c1cccc(N2CCN(C)CC2)c1,> 0.5,,
N#Cc1ccn(-c2cccc(N3CCN(CCCCCCc4ccccc4)CC3)c2)c1,0.27,,
NC(=O)c1ccn(-c2cccc(N3CCN(CCCCCCc4ccccc4)CC3)c2)c1,0.01,> 1,Active
